# Reference: PubChem BioAssay AID1963829 (Molecular Pharmacology Branch, DTP, NCI, 2024)
# Test system: 935938-334-R-J1-PDC complex spheroid viability
# Experiment: Anticancer human tumor 935938-334-R-J1-PDC patient-derived small intestine adenocarcinoma cell line growth inhibition [POLQ]
# Conditions: for IC50: curve of first compound; for viability, T/C: stronger effect = lower value
# Outline: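 Complex spheroid viability model combining PDC tumour cells with endothelial (HUVEC) and MSC stromal cells. Novobiocin, ART-558 or RP6685 were tested singly and in combination with standard and investigational anticancer drugs. Each was titrated in half-log steps from near clinical Cmax, or from 10 microM where Cmax was unknown.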
# [1] = second compound 0.0316 µM, first compound 0.0316 µM
# [2] = second compound 0.0316 µM, first compound 0.1 µM
# [3] = second compound 0.0316 µM, first compound 0.316 µM
# [4] = second compound 0.0316 µM, first compound 1 µM
# [5] = second compound 0.1 µM, first compound 0.0316 µM
# [6] = second compound 0.1 µM, first compound 0.1 µM
# [7] = second compound 0.1 µM, first compound 0.316 µM
# [8] = second compound 0.1 µM, first compound 1 µM
# [9] = second compound 0.316 µM, first compound 0.0316 µM
# [10] = second compound 0.316 µM, first compound 0.1 µM
# [11] = second compound 0.316 µM, first compound 0.316 µM
# [12] = second compound 0.316 µM, first compound 1 µM
# [13] = second compound 1 µM, first compound 0.0316 µM
# [14] = second compound 1 µM, first compound 0.1 µM
# [15] = second compound 1 µM, first compound 0.316 µM
# [16] = second compound 1 µM, first compound 1 µM
# [17] = second compound 3.16 µM, first compound 0.0316 µM
# [18] = second compound 3.16 µM, first compound 0.1 µM
# [19] = second compound 3.16 µM, first compound 0.316 µM
# [20] = second compound 3.16 µM, first compound 1 µM
# [21] = second compound 10 µM, first compound 0.0316 µM
# [22] = second compound 10 µM, first compound 0.1 µM
# [23] = second compound 10 µM, first compound 0.316 µM
# [24] = second compound 10 µM, first compound 1 µM
# [25] = second compound 0.0316 µM, first compound 0.00316 µM
# [26] = second compound 0.0316 µM, first compound 0.01 µM
# [27] = second compound 0.1 µM, first compound 0.00316 µM
# [28] = second compound 0.1 µM, first compound 0.01 µM
# [29] = second compound 0.316 µM, first compound 0.00316 µM
# [30] = second compound 0.316 µM, first compound 0.01 µM
# [31] = second compound 1 µM, first compound 0.00316 µM
# [32] = second compound 1 µM, first compound 0.01 µM
# [33] = second compound 3.16 µM, first compound 0.00316 µM
# [34] = second compound 3.16 µM, first compound 0.01 µM
# [35] = second compound 10 µM, first compound 0.00316 µM
# [36] = second compound 10 µM, first compound 0.01 µM
# 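Also: spheroids exposed to drugs for seven days before viability read.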
# 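For viability, T/C in this document: 100% = DMSO vehicle control wells.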
smiles,measurement,setting,value
CNCc1ccc(-c2[nH]c3cc(F)cc4c3c2CCNC4=O)cc1 + Nc1ccc(C#CCN(C(=O)Cc2ncc(C(F)(F)F)cc2C(F)(F)F)c2ccc(F)cc2)nn1,IC50,second compound 0.0316 µM,> 10000 nM
same,IC50,second compound 0.1 µM,> 10000 nM
same,IC50,second compound 0.316 µM,> 10000 nM
same,IC50,second compound 1 µM,> 10000 nM
same,IC50,second compound 3.16 µM,> 10000 nM
same,IC50,second compound 10 µM,> 10000 nM
same,"viability, T/C",[1],96.6%
same,"viability, T/C",[2],104%
same,"viability, T/C",[3],105%
same,"viability, T/C",[4],77.2%
same,"viability, T/C","second compound 0.0316 µM, first compound 3.16 µM",80%
same,"viability, T/C","second compound 0.0316 µM, first compound 10 µM",96.1%
same,"viability, T/C",[5],85.8%
same,"viability, T/C",[6],80.5%
same,"viability, T/C",[7],112%
same,"viability, T/C",[8],91.8%
same,"viability, T/C","second compound 0.1 µM, first compound 3.16 µM",100%
same,"viability, T/C","second compound 0.1 µM, first compound 10 µM",96.5%
same,"viability, T/C",[9],126%
same,"viability, T/C",[10],102%
same,"viability, T/C",[11],110%
same,"viability, T/C",[12],95.7%
same,"viability, T/C","second compound 0.316 µM, first compound 3.16 µM",107%
same,"viability, T/C","second compound 0.316 µM, first compound 10 µM",89.2%
same,"viability, T/C",[13],77.2%
same,"viability, T/C",[14],78.2%
same,"viability, T/C",[15],121%
same,"viability, T/C",[16],86.7%
same,"viability, T/C","second compound 1 µM, first compound 3.16 µM",111%
same,"viability, T/C","second compound 1 µM, first compound 10 µM",127%
same,"viability, T/C",[17],109%
same,"viability, T/C",[18],79%
same,"viability, T/C",[19],110%
same,"viability, T/C",[20],106%
same,"viability, T/C","second compound 3.16 µM, first compound 3.16 µM",75%
same,"viability, T/C","second compound 3.16 µM, first compound 10 µM",104%
same,"viability, T/C",[21],111%
same,"viability, T/C",[22],99.5%
same,"viability, T/C",[23],107%
same,"viability, T/C",[24],116%
same,"viability, T/C","second compound 10 µM, first compound 3.16 µM",106%
same,"viability, T/C","second compound 10 µM, first compound 10 µM",130%
Cn1ncnc1[C@H]1c2n[nH]c(=O)c3cc(F)cc(c23)N[C@@H]1c1ccc(F)cc1 + COC1C(OC(N)=O)C(O)C(Oc2ccc3c(O)c(NC(=O)c4ccc(O)c(CC=C(C)C)c4)c(=O)oc3c2C)OC1(C)C,IC50,second compound 0.0316 µM,> 100 nM
same,IC50,second compound 0.1 µM,> 100 nM
same,IC50,second compound 0.316 µM,> 100 nM
same,IC50,second compound 1 µM,> 100 nM
same,IC50,second compound 3.16 µM,> 100 nM
same,IC50,second compound 10 µM,> 100 nM
same,"viability, T/C","second compound 0.0316 µM, first compound 0.000316 µM",101%
same,"viability, T/C","second compound 0.0316 µM, first compound 0.001 µM",106%
same,"viability, T/C",[25],85.8%
same,"viability, T/C",[26],83.9%
same,"viability, T/C",[1],92.9%
same,"viability, T/C",[2],83.2%
same,"viability, T/C","second compound 0.1 µM, first compound 0.000316 µM",96.5%
same,"viability, T/C","second compound 0.1 µM, first compound 0.001 µM",113%
same,"viability, T/C",[27],103%
same,"viability, T/C",[28],89.8%
same,"viability, T/C",[5],88.5%
same,"viability, T/C",[6],83.5%
same,"viability, T/C","second compound 0.316 µM, first compound 0.000316 µM",94.7%
same,"viability, T/C","second compound 0.316 µM, first compound 0.001 µM",73.8%
same,"viability, T/C",[29],97.6%
same,"viability, T/C",[30],115%
same,"viability, T/C",[9],103%
same,"viability, T/C",[10],89.5%
same,"viability, T/C","second compound 1 µM, first compound 0.000316 µM",84%
same,"viability, T/C","second compound 1 µM, first compound 0.001 µM",105%
same,"viability, T/C",[31],121%
same,"viability, T/C",[32],94.8%
same,"viability, T/C",[13],90.8%
same,"viability, T/C",[14],70.6%
same,"viability, T/C","second compound 3.16 µM, first compound 0.000316 µM",101%
same,"viability, T/C","second compound 3.16 µM, first compound 0.001 µM",102%
same,"viability, T/C",[33],84.3%
same,"viability, T/C",[34],84.6%
same,"viability, T/C",[17],61.7%
same,"viability, T/C",[18],90%
same,"viability, T/C","second compound 10 µM, first compound 0.000316 µM",128%
same,"viability, T/C","second compound 10 µM, first compound 0.001 µM",92.7%
same,"viability, T/C",[35],85.4%
same,"viability, T/C",[36],105%
same,"viability, T/C",[21],78.7%
same,"viability, T/C",[22],95.8%
C=CCn1c(=O)c2cnc(Nc3ccc(N4CCN(C)CC4)cc3)nc2n1-c1cccc(C(C)(C)O)n1 + COC1C(OC(N)=O)C(O)C(Oc2ccc3c(O)c(NC(=O)c4ccc(O)c(CC=C(C)C)c4)c(=O)oc3c2C)OC1(C)C,IC50,second compound 0.0316 µM,651 nM
same,IC50,second compound 0.1 µM,593 nM
same,IC50,second compound 0.316 µM,729 nM
same,IC50,second compound 1 µM,585 nM
same,IC50,second compound 3.16 µM,617 nM
same,IC50,second compound 10 µM,392 nM
same,"viability, T/C",[25],97.9%
same,"viability, T/C",[26],135%
same,"viability, T/C",[1],82.4%
same,"viability, T/C",[2],135%
same,"viability, T/C",[3],84.5%
same,"viability, T/C",[4],29.5%
same,"viability, T/C",[27],136%
same,"viability, T/C",[28],111%
same,"viability, T/C",[5],88.8%
same,"viability, T/C",[6],134%
same,"viability, T/C",[7],71.4%
same,"viability, T/C",[8],32.1%
same,"viability, T/C",[29],126%
same,"viability, T/C",[30],96.7%
same,"viability, T/C",[9],80.4%
same,"viability, T/C",[10],128%
same,"viability, T/C",[11],78.1%
same,"viability, T/C",[12],39.4%
same,"viability, T/C",[31],93.1%
same,"viability, T/C",[32],112%
same,"viability, T/C",[13],123%
same,"viability, T/C",[14],86.3%
same,"viability, T/C",[15],74.8%
same,"viability, T/C",[16],30.4%
same,"viability, T/C",[33],130%
same,"viability, T/C",[34],96.8%
same,"viability, T/C",[17],100%
same,"viability, T/C",[18],112%
same,"viability, T/C",[19],82.5%
same,"viability, T/C",[20],26.6%
same,"viability, T/C",[35],90.5%
same,"viability, T/C",[36],115%
same,"viability, T/C",[21],120%
same,"viability, T/C",[22],86.7%
same,"viability, T/C",[23],57.9%
same,"viability, T/C",[24],24.5%
